Results as given in patent publication US9408852B2, “Method of lowering serum uric acid levels with (S)-tofisopam” (PHARMOS CORPORATION, priority 2011, dated 2016).

Tests used:
Format in all cases: in vivo, human
[1] = system: serum uric acid; test: Serum uric acid in female outpatients with irritable bowel syndrome, 3 months (Comparative Example 6); set-up: Serum uric acid Actual Value, Mean / Serum uric acid Change from Baseline, Mean / Serum uric acid Actual Value, Median / Serum uric acid Change from Baseline, Median: unit not given here; conditions: for Serum uric acid Actual Value, Mean / Serum uric acid Actual Value, Median / Serum uric acid Change from Baseline, Mean / Serum uric acid Change from Baseline, Median: women with irritable bowel syndrome
Method: The study lasted 3 months, and patients were treated with 100 mg, 200 mg or 300 mg of enantiomerically-pure (R)-tofisopam twice a day.

[2] = system: serum uric acid; test: Serum uric acid in postmenopausal women, single- and multiple-dose study (Comparative Example 4); set-up: Serum uric acid, baseline adjusted data, Median / Serum uric acid, unadjusted data, Mean / Serum uric acid, unadjusted data, Median / Serum uric acid, baseline adjusted data, Mean: unit not given here
Method: In a double-blind, randomized, placebo-controlled, single- and multiple-dose study in postmenopausal women with enantiomerically-pure (R)-tofisopam, patients were treated with placebo, 100 mg once a day (qd) of (R)-tofisopam, or 200 mg qd of (R)-tofisopam for the first day of the study, and then with placebo, 100 mg twice a day (bid) of (R)-tofisopam, or 200 mg bid of (R)-tofisopam for Days 2 to 7 of the study.

[3] = system: serum uric acid; test: Serum uric acid in male and female outpatients with irritable bowel syndrome, 3 months (Comparative Example 5); set-up: Serum uric acid Actual Value, Mean / Serum uric acid Change from Baseline, Mean / Serum uric acid Actual Value, Median / Serum uric acid Change from Baseline, Median: unit not given here; conditions: for Serum uric acid Actual Value, Mean / Serum uric acid Actual Value, Median / Serum uric acid Change from Baseline, Mean / Serum uric acid Change from Baseline, Median: men and women with irritable bowel syndrome
Method: The study lasted 3 months, and patients were treated with 200 mg of (R)-tofisopam twice a day (bid).

[4] = 100 mg bid (qd on D 1, bid on D 2 to D 7), time 6 h
[5] = 100 mg bid (qd on D 1, bid on D 2 to D 7), time 24 h
[6] = 100 mg bid (qd on D 1, bid on D 2 to D 7), time 72 h
[7] = 100 mg bid (qd on D 1, bid on D 2 to D 7), time 143 h
[8] = 100 mg bid (qd on D 1, bid on D 2 to D 7), time 168 h
[9] = 200 mg bid (qd on D 1, bid on D 2 to D 7), time 6 h
[10] = 200 mg bid (qd on D 1, bid on D 2 to D 7), time 24 h
[11] = 200 mg bid (qd on D 1, bid on D 2 to D 7), time 72 h
[12] = 200 mg bid (qd on D 1, bid on D 2 to D 7), time 143 h
[13] = 200 mg bid (qd on D 1, bid on D 2 to D 7), time 168 h

## CC[C@H]1C(C)=NN=C(c2ccc(OC)c(OC)c2)c2cc(OC)c(OC)cc21 [(R)-tofisopam]
[1]; 100 mg BID, 3 months Endpoint
  Serum uric acid Actual Value, Mean: 4.94
  Serum uric acid Actual Value, Median: 4.90
  Serum uric acid Change from Baseline, Mean: 0.22
  Serum uric acid Change from Baseline, Median: 0.20
[1]; 100 mg BID, Week 12
  Serum uric acid Actual Value, Mean: 4.91
  Serum uric acid Actual Value, Median: 4.80
  Serum uric acid Change from Baseline, Mean: 0.23
  Serum uric acid Change from Baseline, Median: 0.20
[1]; 100 mg, 200 mg or 300 mg twice a day, 3 months, female outpatients with irritable bowel syndrome
  Effect on serum uric acid levels: does not decrease
[1]; 200 mg BID, 3 months Endpoint
  Serum uric acid Actual Value, Mean: 4.82
  Serum uric acid Actual Value, Median: 4.60
  Serum uric acid Change from Baseline, Mean: −0.19
  Serum uric acid Change from Baseline, Median: −0.20
[1]; 200 mg BID, Week 12
  Serum uric acid Actual Value, Mean: 4.82
  Serum uric acid Actual Value, Median: 4.60
  Serum uric acid Change from Baseline, Mean: −0.20
  Serum uric acid Change from Baseline, Median: −0.20
[1]; 300 mg BID, 3 months Endpoint
  Serum uric acid Actual Value, Mean: 5.04
  Serum uric acid Actual Value, Median: 5.00
  Serum uric acid Change from Baseline, Mean: −0.05
  Serum uric acid Change from Baseline, Median: 0.00
[1]; 300 mg BID, Week 12
  Serum uric acid Actual Value, Mean: 5.02
  Serum uric acid Actual Value, Median: 4.95
  Serum uric acid Change from Baseline, Mean: −0.06
  Serum uric acid Change from Baseline, Median: −0.05
[1]; up to 3 months after initiation of treatment, 100, 200 or 300 mg twice a day
  Serum uric acid levels over time: remained constant
[2]; [4]
  Serum uric acid, baseline adjusted data, Mean: 0
  Serum uric acid, baseline adjusted data, Median: 0
  Serum uric acid, unadjusted data, Mean: 0.19
  Serum uric acid, unadjusted data, Median: 0.19
[2]; [5]
  Serum uric acid, baseline adjusted data, Mean: 0.01
  Serum uric acid, baseline adjusted data, Median: 0.01
  Serum uric acid, unadjusted data, Mean: 0.20
  Serum uric acid, unadjusted data, Median: 0.21
[2]; [6]
  Serum uric acid, baseline adjusted data, Mean: 0.01
  Serum uric acid, baseline adjusted data, Median: 0.01
  Serum uric acid, unadjusted data, Mean: 0.20
  Serum uric acid, unadjusted data, Median: 0.21
[2]; [7]
  Serum uric acid, baseline adjusted data, Mean: 0.01
  Serum uric acid, baseline adjusted data, Median: 0.01
  Serum uric acid, unadjusted data, Mean: 0.20
  Serum uric acid, unadjusted data, Median: 0.20
[2]; [8]
  Serum uric acid, baseline adjusted data, Mean: 0.03
  Serum uric acid, baseline adjusted data, Median: 0.03
  Serum uric acid, unadjusted data, Mean: 0.23
  Serum uric acid, unadjusted data, Median: 0.23
[2]; 100 mg or 200 mg qd first day, bid Days 2 to 7
  Effect on serum uric acid levels: does not decrease
[2]; [9]
  Serum uric acid, baseline adjusted data, Mean: −0.01
  Serum uric acid, baseline adjusted data, Median: −0.01
  Serum uric acid, unadjusted data, Mean: 0.21
  Serum uric acid, unadjusted data, Median: 0.21
[2]; [10]
  Serum uric acid, baseline adjusted data, Mean: −0.01
  Serum uric acid, baseline adjusted data, Median: −0.01
  Serum uric acid, unadjusted data, Mean: 0.21
  Serum uric acid, unadjusted data, Median: 0.21
[2]; [11]
  Serum uric acid, baseline adjusted data, Mean: 0
  Serum uric acid, baseline adjusted data, Median: 0
  Serum uric acid, unadjusted data, Mean: 0.22
  Serum uric acid, unadjusted data, Median: 0.22
[2]; [12]
  Serum uric acid, baseline adjusted data, Mean: −0.01
  Serum uric acid, baseline adjusted data, Median: 0
  Serum uric acid, unadjusted data, Mean: 0.21
  Serum uric acid, unadjusted data, Median: 0.21
[2]; [13]
  Serum uric acid, baseline adjusted data, Mean: 0.01
  Serum uric acid, baseline adjusted data, Median: 0.01
  Serum uric acid, unadjusted data, Mean: 0.22
  Serum uric acid, unadjusted data, Median: 0.23
[2]; up to 168 hours (7 days) after initiation of treatment
  Serum uric acid levels over time: remained constant
[3]; 200 mg bid, 3 months Endpoint
  Serum uric acid Actual Value, Mean: 5.20
  Serum uric acid Actual Value, Median: 5.10
  Serum uric acid Change from Baseline, Mean: −0.06
  Serum uric acid Change from Baseline, Median: 0.00
[3]; 200 mg bid, Day 7
  Serum uric acid Actual Value, Mean: 5.18
  Serum uric acid Actual Value, Median: 5.00
  Serum uric acid Change from Baseline, Mean: −0.05
  Serum uric acid Change from Baseline, Median: 0.00
[3]; 200 mg bid, Day 14
  Serum uric acid Actual Value, Mean: 5.22
  Serum uric acid Actual Value, Median: 5.05
  Serum uric acid Change from Baseline, Mean: −0.01
  Serum uric acid Change from Baseline, Median: −0.10
[3]; 200 mg bid, Day 28
  Serum uric acid Actual Value, Mean: 5.18
  Serum uric acid Actual Value, Median: 5.00
  Serum uric acid Change from Baseline, Mean: −0.07
  Serum uric acid Change from Baseline, Median: −0.10
[3]; 200 mg bid, Day 42
  Serum uric acid Actual Value, Mean: 5.46
  Serum uric acid Actual Value, Median: 5.70
  Serum uric acid Change from Baseline, Mean: 0.12
  Serum uric acid Change from Baseline, Median: 0.20
[3]; 200 mg bid, Day 56
  Serum uric acid Actual Value, Mean: 5.40
  Serum uric acid Actual Value, Median: 5.20
  Serum uric acid Change from Baseline, Mean: 0.02
  Serum uric acid Change from Baseline, Median: 0.00
[3]; 200 mg bid, Day 84
  Serum uric acid Actual Value, Mean: 5.37
  Serum uric acid Actual Value, Median: 5.30
  Serum uric acid Change from Baseline, Mean: 0.03
  Serum uric acid Change from Baseline, Median: 0.10
[3]; 200 mg twice a day (bid), 3 months, male and female outpatients with irritable bowel syndrome
  Effect on serum uric acid levels: does not decrease
[3]; up to 3 months after initiation of treatment, 200 mg bid
  Serum uric acid levels over time: remained constant
